Our source for the EC50 and NA values is ChEMBL document CHEMBL1135930, “Identification of nonpeptidic urotensin II receptor antagonists by virtual screening based on a pharmacophore model derived from structure-activity relationships and nuclear magnetic resonance studies on urotensin II” (J Med Chem, 2002).

Test [1] has as its target T1, Urotensin-2 receptor (Homo sapiens, UniProt Q9UKP6).
T1 sequence (Q9UKP6 whole entry): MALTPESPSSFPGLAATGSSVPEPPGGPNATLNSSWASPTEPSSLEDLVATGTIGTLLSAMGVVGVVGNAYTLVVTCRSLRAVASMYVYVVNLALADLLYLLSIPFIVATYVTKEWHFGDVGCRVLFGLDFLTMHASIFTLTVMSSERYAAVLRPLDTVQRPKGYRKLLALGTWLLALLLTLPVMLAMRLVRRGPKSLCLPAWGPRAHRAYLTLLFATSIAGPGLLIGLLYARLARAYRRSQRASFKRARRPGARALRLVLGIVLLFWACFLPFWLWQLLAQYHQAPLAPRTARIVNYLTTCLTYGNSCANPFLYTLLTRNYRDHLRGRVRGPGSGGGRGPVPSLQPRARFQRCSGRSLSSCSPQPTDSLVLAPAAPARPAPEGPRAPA
The test is described as follows: Mobilization of intracellular calcium in CHO cells transiently transfected with human Urotensin 2 receptor. It counts as functional, cell-based. Background: A change in cytosolic calcium serves as a functional read-out for many receptors and channels.

The target of test [2] is T2, Urotensin-2 receptor (Homo sapiens) (UniProt Q9UKP6).
T2 sequence (whole entry): T1 sequence (Q9UKP6 whole entry)
To be noted: CHO.

Activity calls are given as the source filed them. No cut-off for these calls is given here. Positions of bridges follow the written chain, without caps; N, C: chain ends. Residues, ends and D or L forms follow the SMILES beside them.

One may read the EC50 as the concentration giving half of the maximal effect. As for `CC(C)[C@H](NC(=O)[C@H](CS)NC(=O)[C@H](Cc1ccc(O)cc1)NC(=O)[C@H](CCCCN)NC(=O)[C@H](Cc1c[nH]c2ccccc12)NC(=O)[C@H](Cc1ccccc1)NC(=O)[C@@H](N)CS)C(=O)O` (H-CFWKYCV-OH), the EC50 in test [1] was found to be 1.8 nM. In the case of `CC(C)[C@H](NC(=O)[C@@H]1CSSC[C@H](NC(=O)[C@H](CC(=O)O)NC(=O)[C@@H]2CCCN2C(=O)[C@@H](N)[C@@H](C)O)C(=O)N[C@@H](Cc2ccccc2)C(=O)N[C@@H](Cc2c[nH]c3ccccc23)C(=O)N[C@@H](CCCCN)C(=O)N[C@@H](Cc2ccc(O)cc2)C(=O)N1)C(=O)O` (H-TPDCFWKYCV-OH; disulfide 4-9), the EC50 in test [1] (cho) came to 2.4 nM.

Turning to `CC(C)[C@H](NC(=O)[C@H](CS)NC(=O)[C@H](Cc1ccc(O)cc1)NC(=O)[C@H](CCCCN)NC(=O)[C@H](Cc1c[nH]c2ccccc12)NC(=O)[C@H](Cc1ccccc1)NC(=O)[C@H](C)NC(=O)[C@H](CC(=O)O)NC(=O)[C@@H]1CCCN1C(=O)[C@@H](NC(=O)[C@@H](N)CCC(=O)O)[C@@H](C)O)C(=O)O`, in test [1], the EC50 came out at 233 nM.

Regarding `CC(C)[C@H](NC(=O)[C@H](CS)NC(=O)[C@H](Cc1ccc(O)cc1)NC(=O)[C@H](CCCCN)NC(=O)[C@H](Cc1c[nH]c2ccccc12)NC(=O)[C@H](Cc1ccccc1)NC(=O)[C@H](CS)NC(=O)[C@H](CC(=O)O)NC(=O)[C@@H]1CCCN1C(=O)[C@H](C)NC(=O)[C@@H](N)CCC(=O)O)C(=O)O`, the concentration giving a half-maximal response (EC50) in test [1] amounted to 3.3 nM. As for `CC(C)[C@H](NC(=O)[C@@H]1CSSC[C@H](NC(=O)[C@H](CC(=O)O)NC(=O)[C@@H]2CCCN2C(=O)[C@@H](NC(=O)[C@@H](N)CCC(=O)O)[C@@H](C)O)C(=O)N[C@@H](Cc2ccccc2)C(=O)N[C@@H](C)C(=O)N[C@@H](CCCCN)C(=O)N[C@@H](Cc2ccc(O)cc2)C(=O)N1)C(=O)O` (H-ETPDCFAKYCV-OH; disulfide 5-10), the EC50 in test [1] (cho) turned out to be 1300 nM.

Consider `CC(C)[C@H](NC(=O)[C@H](CS)NC(=O)[C@@H](Cc1ccc(O)cc1)NC(=O)[C@H](CCCCN)NC(=O)[C@H](Cc1c[nH]c2ccccc12)NC(=O)[C@H](Cc1ccccc1)NC(=O)[C@H](CS)NC(=O)[C@H](CC(=O)O)NC(=O)[C@H]1CCCN1C(=O)[C@@H](NC(=O)[C@@H](N)CCC(=O)O)[C@@H](C)O)C(=O)O`, for which, in test [2], the NA result is “inactive”. For `CC(C)[C@H](NC(=O)[C@@H]1CSSC[C@H](NC(=O)[C@H](CC(=O)O)NC(=O)[C@@H]2CCCN2C(=O)[C@@H](NC(=O)[C@@H](N)CCC(=O)O)[C@@H](C)O)C(=O)N[C@@H](C)C(=O)N[C@@H](Cc2c[nH]c3ccccc23)C(=O)N[C@@H](CCCCN)C(=O)N[C@@H](Cc2ccc(O)cc2)C(=O)N1)C(=O)O` (H-ETPDCAWKYCV-OH; disulfide 5-10), the concentration for a half-maximal effect (EC50) in test [1] (cho) stood at 5.7 nM.

Consider `CC(C)[C@H](NC(=O)[C@H](CS)NC(=O)[C@H](Cc1ccc(O)cc1)NC(=O)[C@H](CCCCN)NC(=O)[C@H](Cc1c[nH]c2ccccc12)NC(=O)[C@H](Cc1ccccc1)NC(=O)[C@H](CS)NC(=O)[C@@H](N)CC(=O)O)C(=O)O` (H-DCFWKYCV-OH), for which the EC50 in test [1] is 3 nM.

With `CC(C)[C@H](NC(=O)[C@H](CS)NC(=O)[C@H](Cc1ccc(O)cc1)NC(=O)[C@H](CCCCN)NC(=O)[C@H](Cc1c[nH]c2ccccc12)NC(=O)[C@H](Cc1ccccc1)NC(=O)[C@H](CS)NC(=O)[C@H](C)NC(=O)[C@@H]1CCCN1C(=O)[C@@H](NC(=O)[C@@H](N)CCC(=O)O)[C@@H](C)O)C(=O)O`, the EC50 in test [1] was 2.7 nM. Consider `CC(C)[C@H](NC(=O)[C@H](CS)NC(=O)[C@H](CCCCN)NC(=O)[C@H](Cc1c[nH]c2ccccc12)NC(=O)[C@H](Cc1ccccc1)NC(=O)[C@H](CS)NC(=O)[C@H](CC(=O)O)NC(=O)[C@H]1CCCN1C(=O)[C@@H](NC(=O)[C@@H](N)CCC(=O)O)[C@@H](C)O)C(=O)O`, for which the NA result in test [2] was “inactive”. As for `CC(C)[C@H](NC(=O)[C@@H]1CSSC[C@H](NC(=O)[C@H](CC(=O)O)NC(=O)[C@@H]2CCCN2C(=O)[C@@H](NC(=O)[C@@H](N)CCC(=O)O)[C@@H](C)O)C(=O)N[C@@H](Cc2ccccc2)C(=O)N[C@@H](CCCCN)C(=O)N[C@@H](Cc2ccc(O)cc2)C(=O)N1)C(=O)O` (H-ETPDCFKYCV-OH; disulfide 5-9), the EC50 in test [1] (cho) was greater than 10000 nM. As to `C[C@@H](O)[C@H](NC(=O)[C@@H](N)CCC(=O)O)C(=O)N1CCC[C@H]1C(=O)N[C@@H](CC(=O)O)C(=O)N[C@H]1CSSC[C@@H](C(=O)O)NC(=O)[C@H](Cc2ccc(O)cc2)NC(=O)[C@H](CCCCN)NC(=O)[C@H](Cc2c[nH]c3ccccc23)NC(=O)[C@H](Cc2ccccc2)NC1=O` (H-ETPDCFWKYC-OH; disulfide 5-10), the EC50 in test [1] (cho) is 1.8 nM. As to `CC(C)[C@H](NC(=O)[C@@H]1CSSC[C@H](NC(=O)[C@H](CC(=O)O)NC(=O)[C@@H]2CCCN2C(=O)[C@@H](NC(=O)[C@@H](N)CCC(=O)O)[C@@H](C)O)C(=O)N[C@@H](Cc2c[nH]c3ccccc23)C(=O)N[C@@H](CCCCN)C(=O)N[C@@H](Cc2ccc(O)cc2)C(=O)N1)C(=O)O` (H-ETPDCWKYCV-OH; disulfide 5-9), in test [1] (cho), the EC50 worked out at 53 nM. `CC(C)[C@H](NC(=O)[C@H](CS)NC(=O)[C@H](Cc1ccc(O)cc1)NC(=O)[C@H](CCCCN)NC(=O)[C@H](Cc1c[nH]c2ccccc12)NC(=O)[C@H](Cc1ccccc1)NC(=O)[C@H](CS)NC(=O)[C@H](CC(=O)O)NC(=O)[C@@H]1CCCN1C(=O)[C@@H](NC(=O)[C@H](C)N)[C@@H](C)O)C(=O)O`: the EC50 in test [1] was found to be 1.8 nM.

Regarding `CC(C)[C@H](NC(=O)[C@H](CS)NC(=O)[C@H](Cc1ccc(O)cc1)NC(=O)[C@H](CCCCN)NC(=O)[C@H](Cc1c[nH]c2ccccc12)NC(=O)[C@H](Cc1ccccc1)NC(=O)[C@H](CS)NC(=O)[C@H](CC(=O)O)NC(=O)[C@H](C)NC(=O)[C@@H](NC(=O)[C@@H](N)CCC(=O)O)[C@@H](C)O)C(=O)O` (H-ETADCFWKYCV-OH), the EC50 in test [1] amounted to 1.9 nM. As to `CC(C)[C@H](NC(=O)[C@@H]1CSSC[C@H](NC(=O)[C@H](CC(=O)O)NC(=O)[C@@H]2CCCN2)C(=O)N[C@@H](Cc2ccccc2)C(=O)N[C@@H](Cc2c[nH]c3ccccc23)C(=O)N[C@@H](CCCCN)C(=O)N[C@@H](Cc2ccc(O)cc2)C(=O)N1)C(=O)O` (H-PDCFWKYCV-OH; disulfide 3-8), in test [1] (cho), the EC50 came out at 3.6 nM. In the case of `CC(C)[C@H](NC(=O)[C@H](CS)NC(=O)[C@H](Cc1ccc(O)cc1)NC(=O)[C@H](Cc1c[nH]c2ccccc12)NC(=O)[C@H](Cc1ccccc1)NC(=O)[C@H](CS)NC(=O)[C@H](CC(=O)O)NC(=O)[C@H]1CCCN1C(=O)[C@@H](NC(=O)[C@@H](N)CCC(=O)O)[C@@H](C)O)C(=O)O`, the NA entry in test [2] was “inactive”. `CC(C)[C@H](NC(=O)[C@@H]1CSSC[C@H](NC(=O)[C@H](CC(=O)O)NC(=O)[C@@H]2CCCN2C(=O)[C@@H](NC(=O)[C@@H](N)CCC(=O)O)[C@@H](C)O)C(=O)N[C@@H](Cc2ccccc2)C(=O)N[C@@H](Cc2c[nH]c3ccccc23)C(=O)N[C@@H](CCCCN)C(=O)N[C@@H](C)C(=O)N1)C(=O)O` (H-ETPDCFWKACV-OH; disulfide 5-10): the EC50 in test [1] (cho) amounted to 193 nM. As to `CC(C)[C@H](NC(=O)[C@@H]1CSSC[C@H](NC(=O)[C@H](CC(=O)O)NC(=O)[C@@H]2CCCN2C(=O)[C@@H](NC(=O)[C@@H](N)CCC(=O)O)[C@@H](C)O)C(=O)N[C@@H](Cc2ccccc2)C(=O)N[C@@H](Cc2c[nH]c3ccccc23)C(=O)N[C@@H](C)C(=O)N[C@@H](Cc2ccc(O)cc2)C(=O)N1)C(=O)O` (H-ETPDCFWAYCV-OH; disulfide 5-10), the EC50 in test [1] (cho) was determined as 14800 nM. Turning to `C[C@H](NC(=O)[C@@H]1CSSC[C@H](NC(=O)[C@H](CC(=O)O)NC(=O)[C@@H]2CCCN2C(=O)[C@@H](NC(=O)[C@@H](N)CCC(=O)O)[C@@H](C)O)C(=O)N[C@@H](Cc2ccccc2)C(=O)N[C@@H](Cc2c[nH]c3ccccc23)C(=O)N[C@@H](CCCCN)C(=O)N[C@@H](Cc2ccc(O)cc2)C(=O)N1)C(=O)O` (H-ETPDCFWKYCA-OH; disulfide 5-10), the EC50 in test [1] (cho) was 3.2 nM. As for `NCCCC[C@H](NC(=O)[C@H](Cc1c[nH]c2ccccc12)NC(=O)[C@H](Cc1ccccc1)NC(=O)[C@@H](N)CS)C(=O)N[C@@H](Cc1ccc(O)cc1)C(=O)N[C@@H](CS)C(N)=O` (H-CFWKYC-NH2), the EC50 in test [1] came out at 2.3 nM.
